According to US12187704B2, “Triazine derivatives and methods of use thereof” (Ascletis BioScience Co., Ltd., priority 2022, dated 2025):
Read-outs that look alike come from different tables or passages of the source.

Assays:
[1] = test system: SARS-COV-2 Omicron hCoV-19/USA/MD HP20874/2021 (B.1.1.529) strain; assay: In vitro antiviral activity against SARS-COV-2 Omicron B.1.1.529 in Calu-3 cells; format: cell-based; conditions: Severe acute respiratory syndrome coronavirus 2, Calu-3, 48 h
[2] = test system: hCoV-19/USA/Chicago IL/2022 (BA.5.2); assay: In vitro antiviral activity against SARS-COV-2 BA.5.2 in Calu-3 cells; format: cell-based; conditions: Severe acute respiratory syndrome coronavirus 2, Calu-3, 48 h
in vivo [3] = conditions: monkey, crab-eating monkeys, plasma
Experimental: (§1) Oral administration: The compounds were administered with a volume ratio of Solutol:PEG400:Tween80:Saline=10:40:2:48 (v/v/v/v) at a dose of 2 mg/kg. At 0.25 h, 0.5 h, 1 h, 2 h, 4 h, 8 h, 10 h, 12 h and 24 h after drug administration, blood was serially collected from the fundus venous plexus in EP tubes containing EDTA, centrifuged at 8000 rpm/min for 5 min and then the upper layer of plasma was frozen at −80° C. and stored for LC-MS/MS analysis.
(§2) Intravenous administration: the compound was administered with 10% DMSO/30% PEG400/60% water (v/v/v) at a dose of 1 mg/kg). At 0.0833 h, 0.25 h, 0.5 h, 1 h, 2 h, 4 h, 8 h, 12 h and 24 h after drug administration, blood was serially collected from the fundic venous plexus in EP tubes containing EDTA, centrifuged at 8000 rpm/min for 5 min and then the upper layer of plasma was frozen at −80° C. and stored for LC-MS/MS analysis.
(§3) The pharmacokinetic parameters were calculated from the blood concentration-time data obtained from the tests using WinNonlin software.

in vivo [4] = conditions: rat
Experimental: as §1, with “The compound was” for “The compounds were”, “Solutol:PEG400:Tween80:Saline=10:40:2:48 […]” for “Solutol:PEG400:Tween80:Saline=10:40:2:48 (v/v/v/v)”, “of 10” for “of 2”
as §2, with “with a volume ratio of” for “with”
as §3

[5] = intravenous, 1 mg/kg, read-out: Intravenous injection AUClast
[6] = oral, 2 mg/kg, read-out: Oral AUClast

| Structure (SMILES) | EC50 [1] | EC50 [2] | AUC(0-t) (in vivo [3]; [5]) | AUC(0-t) (in vivo [3]; [6]) | AUC(0-t) (in vivo [4]; iv, 1 mg/kg) | AUC(0-t) (in vivo [4]; po, 10 mg/kg) |
| --- | --- | --- | --- | --- | --- | --- |
| Cn1cc2cc(Nc3nc(=O)n(-c4cc(Cl)cnc4Cl)c(=O)n3Cc3cc(F)c(F)cc3F)c(Cl)cc2n1 [Compound 3] | 84 nM | 149 nM | – | – | – | – |
| [2H]C([2H])([2H])n1cc2cc(Nc3nc(=O)n(-c4cncc(Cl)c4)c(=O)n3Cc3cc(F)c(F)cc3F)c(Br)cc2n1 [Compound 6] | 10 nM | 20 nM | 35700 ng·h/mL | 59000 ng·h/mL | 19500 ng·h/mL | 205000 ng·h/mL |
| [2H]C([2H])([2H])n1cc2cc(Nc3nc(=O)n(-c4cncc(Cl)c4)c(=O)n3Cc3cc(F)c(F)cc3F)c(Cl)cc2n1 [Compound 5] | 9 nM | 15 nM | 38400 ng·h/mL | 60700 ng·h/mL | 19000 ng·h/mL | 224000 ng·h/mL |
| Cn1cc2cc(Nc3nc(=O)n(-c4cc(F)cnc4Cl)c(=O)n3Cc3cc(F)c(F)cc3F)c(Cl)cc2n1 [Compound 2] | 98 nM | 156 nM | – | – | – | – |
| O=c1nc(Nc2cc3cn(CCO)nc3cc2Cl)n(Cc2cc(F)c(F)cc2F)c(=O)n1-c1cncc(Cl)c1 [Compound 4] | 13 nM | 18 nM | 10300 ng·h/mL | 15200 ng·h/mL | 2040 ng·h/mL | 10800 ng·h/mL |
| Cn1cc2cc(Nc3nc(=O)n(-c4cncnc4)c(=O)n3Cc3cc(F)c(F)cc3F)c(Cl)cc2n1 [Compound 1, 6-((6-chloro-2-methyl-2H-indazol-5-yl)amino)-3-(pyrimidin-5-yl)-1-(2,4,5-trifluorobenzyl)-1,3,5-triazine-2,4(1H,3H)-dione] | 195 nM | 323 nM | – | – | – | – |
